Assay: relative stability of linezolid crystal forms
Assay type: physicochemical
Settings: temperature below about 85° (degrees Centigrade)

## CC(=O)NC[C@H]1CN(c2ccc(N3CCOCC3)c(F)c2)C(=O)O1 [Crystal Form II, (S)-N-[[3-[3-fluoro-4-(4-morpholinyl)phenyl]-2-oxo-5-oxazolidinyl]methyl]acetamide]
  stability of the crystal form relative to other solid forms (e.g. Form I): most stable form below about 85°
